Measured values from patent publication US11478466B2, “Small molecule promoting osteoblast differentiation” (Cornell University, priority 2019, dated 2022).

System: alkaline phosphatase (ALP)
Settings: for RFU Score Threshold ≥ 800 / Fluorescence Z Score Threshold ≥ 10 / NPA Score Threshold ≥ 5.0 (normalized percent activation): primary screen, 10 μM, C2C12, 4 days; for RFU Score Threshold ≥ 800: Ex 450/Em 580 nm, rank in brackets not taken; for Fluorescence Z Score Threshold ≥ 10: Z score on DMSO control wells; for NPA Score Threshold ≥ 5.0 (normalized percent activation): normalized against rhBMP4 positive and DMSO negative controls

Compound | RFU Score Threshold ≥ 800 | Fluorescence Z Score Threshold ≥ 10 | NPA Score Threshold ≥ 5.0 (normalized percent activation) | EC50 (read-out: Measured EC50, compounds validated in secondary screen, C2C12) [µM]
CCC(C)(C)C(=O)N1CCC(CO)(CCOc2ccccc2)CC1 [RU-0220454] | 811 (31) | Below Threshold | Below Threshold | 
CSc1ncc(C(=O)NCc2cc(C)cc3c(C)c(C)[nH]c23)cn1 [RU-0239453] | 809 (33) | Below Threshold | Below Threshold | 
COC(=O)c1ccc(NC(=O)c2c3c(nn2C2CCS(=O)(=O)C2)CCC3)cc1 (stereo not shown) [RU-0159762] | 855 (22) | 21.33 (6) | Below Threshold | 
Cc1ccccc1N1CCN(C(=O)c2ccc(C#CC(C)(C)O)o2)C(C)C1 (stereo not shown) [RU-0228950] | 921 (14) | 15.58 (13) | Below Threshold | 
O=C(c1ccc2c(c1)OCO2)C1CCCN(C(=O)c2cnn(Cc3ccccc3)c2)C1 (stereo not shown) [RU-0227215] | 1310 (4) | 27.39 (4) | Below Threshold | 
Cc1ccc(CN2CCN(Cc3ccccc3CO)CC2)n1-c1cccnc1 [RU-0221380] | 922 (13) | 16.89 (11) | Below Threshold | 
Cc1ccc(OCCN(C)Cc2ccncc2)c(C)c1 [RU-0244443] | 818 (29) | Below Threshold | Below Threshold | 
OCc1ccccc1-c1ccc(NC2CCCC2)nn1 [RU-0227303] | Below Threshold | 13.68 (18) | Below Threshold | 
CCOC(=O)c1n[nH]cc1[C@@H]1C[C@H](NC(C)=O)C[C@H](CC(C)C)O1 [RU-0257787] | Below Threshold | 12.09 (21) | Below Threshold | 
Cc1nc[nH]c1CN1CCOc2c(O)cc(-c3cccc(Cl)c3)cc2C1 [RU-0236543] | 821 (27) | Below Threshold | Below Threshold | 
CN(Cc1cccc2ncccc12)CC1CCOC1 (stereo not shown) [RU-0252111] | 1010 (10) | 16.48 (12) | Below Threshold | 
CCC(OC)C(=O)NCc1ccc2[nH]c(-c3ccccc3F)c(C)c2c1 (stereo not shown) [RU-0244068] | 836 (26) | Below Threshold | Below Threshold | 
CC1(C)C(=O)NCCN1C(=O)/C=C(/c1ccc(Cl)cc1)C(F)(F)F [RU-0213635] | 1170 (5) | 15.00 (14) | Below Threshold | 
Cc1cc(C(=O)NC2(C#N)CC2)ccc1NC(=O)CC(C)C [RU-0213672] | 1040 (9) | 12.15 (20) | Below Threshold | 
CCCc1ccc(-c2ccc(C(=O)N3C[C@@H](N)C[C@H]3C(=O)NC)cc2)cc1 [RU-0232318] | 804 (35) | Below Threshold | Below Threshold | 
c1ccc2c(c1)nc(NC1CCCC1)c1nncn12 [RU-0007138] | Below Threshold | 17.92 (10) | Below Threshold | 
c1ccc(CC2CCN(Cc3cc4n(n3)CCCNC4)C2)cc1 (stereo not shown) [RU-0246723] | 873 (20) | 10.91 (23) | Below Threshold | 
COc1cccc(C2CCN(c3ncnc4c3CCNC4)C2)c1OC (stereo not shown) [RU-0227959] | 815 (30) | Below Threshold | Below Threshold | 
O[C@@H]1CNCC[C@H]1CNCc1ccccc1-c1ccccc1 [RU-0236855] | 810 (32) | Below Threshold | Below Threshold | 
CN1CCC2(CC1)CN(C(=O)COCC1CCCO1)CCCN2C (stereo not shown) [RU-0224115] | 900 (17) | Below Threshold | Below Threshold | 
CCNC(=O)N1CCc2c(cnc(C)c2-c2noc(-c3ccc(C)cc3)n2)C1 [RU-0265172] | 840 (25) | 18.70 (9) | Below Threshold | 
N-(3-isoquinolin-5-ylbenzyl)propanamide [RU-0248250] | 1000 (11) | 24.29 (5) | Below Threshold | > 40
COc1ccc(-n2c(Cc3cccnc3)n[nH]c2=O)c(C)c1 [RU-0230205] | 1060 (8) | 19.99 (7) | Below Threshold | 
CCCc1nc(C)c(CNC(=O)C2CCOC2)s1 (stereo not shown) [RU-0254439] | Below Threshold | 14.37 (16) | Below Threshold | 
O=C(N[C@H]1CN[C@H](C(=O)NCCCn2ccnc2)C1)c1cccc(Cl)c1 [RU-0245007] | 993 (12) | 14.31 (17) | Below Threshold | 
